Experimental data reported in ChEMBL document CHEMBL4043090 (Bioorg Med Chem, 2017).

Legend:
[1] = Cytotoxicity against human MAGI-CCR5 cells assessed as reduction in cell viability after 48 hrs by MTS assay; type: cell-based; details: read-out: TC50
[2] = tested on: Human immunodeficiency virus 1; assay: Antiviral activity against HIV-1 Bal infected in human MAGI-CCR5 cells assessed as reduction in viral infection after 48 hrs by fluorescence based beta-galactosidase reporter gene assay; type: functional, cell-based; details: for IC50 / IC90: Human immunodeficiency virus 1, Bal, MAGI-CCR5, 48 h
[3] = Therapeutic index, ratio of TC50 for human MAGI-CCR5 cells to IC50 for HIV-1 Bal infected in MAGI-CCR5 cells
PBMC = assay: Antiviral activity against HIV-1 Bal infected in human PBMC by MTS assay; type: functional, cell-based
[4] = Cytotoxicity against human PBMC assessed as reduction in cell viability by MTS assay; type: cell-based; details: read-out: TC50 (the source's name)
[5] = Therapeutic index, ratio of TC50 for human PBMC to IC50 for HIV-1 Bal infected in human PBMC

Row | SMILES | CC50 at 48 h [1] [µM] | IC50 [2] [µM] | IC90 [2] [µM] | TI [3] | Activity [2] | IC50 (PBMC) [µM] | IC90 (PBMC) [µM] | CC50 [4] [µM] | TI [5]
1 | CC1=C(c2nc(-c3ccc(C#N)cc3)cs2)C(c2ccncc2F)NC(=O)N1 (stereo not given) | > 100 | 63.4 | > 100 | 1.6 |  |  |  |  | 
2 | COc1ccc(C2NC(=O)NC(C)=C2c2nc(-c3ccc(C#N)cc3)cs2)cc1O (stereo not given) | > 100 | 0.38 | 37.8 | 263 | Dose-dependent effect | 0.15 | 0.42 | > 100 | 667
3 | CC1=C(c2nc(-c3ccc(C#N)cc3)cs2)C(c2ccnc3ccccc23)NC(=O)N1 (stereo not given) | > 100 | 3.8 | 98.3 | 26 | Dose-dependent effect | 2.9 | 10.5 | 68.3 | 24
4 | CC1=C(c2nc(-c3cccc(C#N)c3)cs2)C(c2cccc(O)c2)NC(=O)N1C (stereo not given) | > 100 | 55.4 | 89.2 | 1.8 | Dose-dependent effect | 14.5 | 59.6 | 64.2 | 4.4
5 | CC1=C(c2nc(-c3cccc(C#N)c3)cs2)C(c2ccc(O)cc2)NC(=O)N1 (stereo not given) | 69.6 | 4.4 | 40.9 | 16 | Dose-dependent effect | 3.3 | 10.2 | 87.5 | 27
6 | CC1=C(c2nc(-c3ccc(C#N)cc3)cs2)C(c2ccc(OC(F)(F)F)cc2)NC(=O)N1 (stereo not given) | > 100 | 1.6 | 7.6 | 63 | Dose-dependent effect | 8.6 | 21 | > 100 | 12
7 | CC1=C(c2nc(-c3ccc(C#N)cc3)cs2)C(c2ccc(Oc3ccccc3)nc2)NC(=O)N1 (stereo not given) | > 100 | 0.64 | 2.8 | 156 | Dose-dependent effect | 1.2 | 3.4 | 67.5 | 56
8 | COc1cccc(C2NC(=O)NC(C)=C2c2nc(-c3ccc(C#N)cc3)cs2)c1 (stereo not given) | > 100 | 0.38 | 1.8 | 263 | Dose-dependent effect | 0.56 | 1.6 | > 100 | 179
9 | CC1=C(c2nc(-c3ccc(C#N)cc3)cs2)C(c2ccc3ccccc3n2)NC(=O)N1 (stereo not given) | > 100 | 1.5 | 12.7 | 67 | Dose-dependent effect | 1.3 | 5.5 | > 100 | 77
10 | CC1=C(c2nc(-c3ccc4ccccc4c3)cs2)C(c2cccc(O)c2)NC(=O)N1 (stereo not given) | 55 | 43 | 84 | 1.3 | Dose-dependent effect | 13 | 29 | 47 | 3.6
11 | CC1=C(c2nc(-c3cccc(O)c3)cs2)C(c2cccc(O)c2)NC(=O)N1 (stereo not given) | 89 | 68 | 98 | 1.3 | Dose-dependent effect | 40 | 85 | 55 | 1.4
12 | CC1=C(c2nc(-c3ccc(C#N)cc3)cs2)C(c2cccnc2F)NC(=O)N1 (stereo not given) | > 100 | 0.44 | 2.6 | 227 | Dose-dependent effect | 0.26 | 0.83 | > 100 | 385
13 | CC1=C(c2nc(-c3ccccc3)cs2)C(c2cccc(O)c2)NC(=O)N1 (stereo not given) | > 100 | 79 | > 100 | 1.3 | Dose-dependent effect | 37 | 81 | 76 | 2
14 | CC1=C(c2nc(-c3ccc(Br)cc3)cs2)C(c2cccc(O)c2)NC(=O)N1 (stereo not given) | 60 | 2.3 | 15 | 26 | Dose-dependent effect | 3.6 | 12 | 56 | 16
15 | COc1cccc(C2NC(=O)NC(C)=C2c2nc(-c3ccc(C#N)cc3)cs2)n1 (stereo not given) | > 100 | 1.6 | 14.4 | 63 | Dose-dependent effect | 1.6 | 5.9 | > 100 | 63
